Experimental data reported in paper PMC12561453, “Synthesis and Structure–Activity Relationship Study of 2-(amino)quinazolin-4(3H)-one Derivatives as Potential Inhibitors of Methicillin-Resistant Staphylococcus aureus (MRSA)” (Antibiotics, 2025).
Values after ≈ are worked out from the molar mass of the structure shown. Where two headings read alike, the source gives them in different places.

Legend:
[1] = tested on: S. aureus USA300 JE2; experiment: Broth microdilution dose-response, S. aureus USA300 JE2 (MRSA); type: cell-based, Staphylococcus aureus; settings: for MIC50: Staphylococcus aureus, USA300, USA300 JE2, methicillin-resistant, OD600 after 18–24 h, read-out: USA300 MIC50; for antibacterial activity (in words): JE2; for fold better antibacterial activity against JE2 compared to compound 1: JE2, versus compound 1
Excerpt: (§1) The antistaphylococcal activities (MIC50) of the synthesized compounds were examined via a previously described broth microdilution method against two S. aureus strains: ATCC25923, a methicillin-sensitive reference strain, and JE2, a methicillin-resistant strain of the USA300 lineage (Figure 2, Table 1).
(§2) Staphylococcus aureus USA300, a methicillin-resistant strain, was obtained from the Nebraska Transposon Mutant Library. Staphylococcus aureus ATCC25923, a pan-drug-susceptible strain, was purchased from the American Type Culture Collection (ATCC) (Manassas, VA, USA). S. aureus strains were grown in Cation-Adjusted Mueller–Hinton broth (CAMHB) (Difco) at 37 °C. Bacterial strain stocks were stored in vials with 25% glycerol at −80 °C. For each experiment, overnight cultures were prepared by inoculating a frozen bacterial strain stock in 10 mL of CAMHB medium and incubating at 37 °C in a shaking incubator (180 rpm). For the preliminary screen and dose–response experiments, 100 µL of overnight culture was inoculated into 10 mL of fresh CAMHB and incubated for 3 h at 37 °C and 180 rpm.
(§3) Antibiotic susceptibility assay was tested according to modified Clinical and Laboratory Standards Institute (CLSI) laboratory guidelines for broth microdilution assays. S. aureus was cultured in CAMHB, and bacterial cells were prepared with an OD600 of 0.005. DRC plates were prepared by adding 40 µL of bacterial suspension to each well, where 10 µL of each compound had been dispensed for […] of two-fold serial dilutions starting at […]. After incubation of the plates at 37 °C for 18–24 h with 5% CO2, the growth of S. aureus was detected by measuring the OD600nm using an Ensight (Revvity) spectrometer (Revvity, Waltham, MA, USA).
(§4) Figure 2 In vitro antibacterial activities of 2-(amino)quinazolin-4(3H)-one derivatives. S. aureus ATCC25923 (blue) and USA300 JE (orange) strains were incubated with serial dilutions of 2-(amino)quinazolin-4(3H)-one derivatives (0.19–100 µM) for 18–24 h. The dose–responses were observed by measuring OD600nm. The plots were drawn from each group of strains with nonlinear curve fits.

[2] = tested on: S. aureus ATCC25923; experiment: Broth microdilution dose-response, S. aureus ATCC25923; type: cell-based, Staphylococcus aureus; settings: for MIC50: OD600 after 18–24 h, read-out: ATCC25923 MIC50; for antibacterial activity (in words): ATCC25923
Excerpt: as §1, §2, §3, §4

[3] = tested on: HepG2 cells; experiment: In vitro cytotoxicity, HepG2 viability (resazurin); type: cell-based, human; settings: Homo sapiens, HepG2, 24 h, HepG2 cells, 24 h, resazurin; read-out: HepG2 IC50
Method: The in vitro cytotoxicity of the compounds was evaluated by measuring the viability of HepG2 cells, a human liver cell line, following treatment in a dose–response manner, as previously described. […] The efficacy window was calculated as the ratio of IC50 in HepG2 cells to MIC50 against JE2.
To test cytotoxicity with compounds, the human liver cell line HepG2 (ATCC #HB-8065) was used for the assay. HepG2 was cultured in DMEM with 10% fetal bovine serum (FBS) in a 96-well microplate at 37 °C and 5% CO2. HepG2 cells were seeded at a final density of 5 × 10^4 cells/well, and DMEM-containing diluted compounds were added and incubated on the plates at 37 °C in 5% CO2 for 24 h. After that, resazurin (final concentration, 0.1 mg/mL) was added to each well and incubated on the plates at 37 °C in 5% CO2 for 2 h. To detect the fluorescence at 530 nm excitation and 590 nm emission, an Ensight multimode plate reader was used (Revvity, Waltham, MA, USA).

[4] = tested on: S. aureus USA300 JE2 expressing GFP in H460 cells; experiment: microbe, parasite or virus in culture; type: cell-based, Staphylococcus aureus; settings: for MIC50: Staphylococcus aureus, USA300, 24 h, read-out: H460 Assay MIC50 (MIC50 ex vivo)
Excerpt: Staphylococcus aureus, including MRSA, can invade host cells and replicate intracellularly, which complicates treatment with current therapies. To evaluate the intracellular antibacterial activities of the selected compounds, the fifteen compounds tested for cytotoxicity were further assessed using a cell infection model based on H460 human lung epithelial cells, which mimic MRSA-mediated pneumonia. H460 cells were infected with the USA300 JE2 expressing green fluorescent protein (GFP) and subsequently treated with the compounds in a dose–response manner, along with three reference antibiotics: vancomycin, linezolid, and erythromycin. After 24 h of incubation, bacterial loads were quantified by measuring GFP fluorescence in each well. MIC50 values determined in the H460 infection model (MIC50 ex vivo) were generally higher than those obtained from the in vitro tests, likely due to either limited compound penetration into host cells or reduced antibacterial effect of the compounds against intracellular bacteria (Figure 3, Table 2). […] These findings underscore the potential of compound 6y as a promising lead for further development as a novel antistaphylococcal agent.
To see the ex vivo antimicrobial activity of the compound, the human lung carcinoma cell line H460 (ATCC #HTB-177) was used. The H460 cells were cultured in RPMI 1640 medium with 10% fetal bovine serum (FBS) and in a 96-well microplate at 37 °C and 5% CO2. Cell lines were cultured for 2 days, until they reached full confluence in the well. S. aureus (USA300-containing and pCM29-encoding GFP) was cultured in CAMHB with 10 µg/mL of chloramphenicol, and bacterial cells were harvested. After washing the bacterial cells with phosphate-buffered saline (PBS) and suspending them in RPMI, infected H460 cells with S. aureus (1 × 10^7 CFU) and incubated them for 2.5 h. Samples were washed three times with PBS. Then, cells were treated with gentamicin (50 µg/mL of gentamicin in RPMI) and incubated for 1 h. Samples were washed with PBS, RPMI-containing diluted compounds were added, and then they were incubated at 37 °C in 5% CO2 for 24 h. To detect the Green fluorescent protein (GFP) signal, an Ensight multimode plate reader and Opera Phenix Plus (Revvity, Waltham, MA, USA) were used.
Ex vivo infection model images were generated using the Opera Phenix Plus high-content imaging system. Images were obtained by a confocal microscope with a 20× water objective lens. To detect the bacteria fluorescence signal (GFP), the Alexa 488 channel (488 nm laser/500–550 filter, Thermo Fisher Scientific, Waltham, MA, USA) was used, and the brightfield channel was used for H460 cell images.
Figure 3 Antibacterial activities of 2-(amino)quinazolin-4(3H)-one derivatives in the H460 infection model. H460 cells were infected with S. aureus USA300 JE strain expressing GFP, followed by treatment with serial dilutions of 2-(amino)quinazolin-4(3H)-one derivatives. After incubation at 37 °C for 24 h with 5% CO2, fluorescence signals of the bacteria were detected at 488 nm/510 nm using a multilabel plate reader.

[5] = Staphylococcus aureus, ATCC25923, methicillin-sensitive strain

MIC50 [1]	MIC50 [2, 5]	Compound	antibacterial activity (in words) [1]	antibacterial activity (in words) [2]	IC50 [3]	fold better antibacterial activity against JE2 compared to compound 1 [1]	MIC50 [4]	MIC50 ([2]; methicillin-sensitive strain)	H460 Assay MIC50 (MIC50 ex vivo) ([4]; H460 cells infected with USA300 JE2-GFP, 24 h, GFP fluorescence)
6.9 µM (≈ 2.59 µg/mL)	10.8 µM (≈ 4.05 µg/mL)	O=c1[nH]c(Nc2cc(Cl)cc(Cl)c2)nc2c(Cl)c(Cl)ccc12 [6a, 7,8-Dichloro-2-((3,5-dichlorophenyl)amino)quinazolin-4(3H)-one]	–	–	–	–	–	–	–
> 100 µM	> 100 µM	O=c1[nH]c(Nc2cc(Cl)cc(Cl)c2)nc2cc(N3CCOCC3)ccc12 [6b, 2-((3,5-Dichlorophenyl)amino)-7-morpholinoquinazolin-4(3H)-one]	complete abolition of antibacterial activity	complete abolition of antibacterial activity	–	–	–	–	–
> 100 µM	> 100 µM	COc1cc2nc(Nc3cc(Cl)cc(Cl)c3)[nH]c(=O)c2cc1OC [6c, 2-((3,5-Dichlorophenyl)amino)-6,7-dimethoxyquinazolin-4(3H)-one]	complete abolition of antibacterial activity	complete abolition of antibacterial activity	–	–	–	–	–
> 100 µM	> 100 µM	COc1ccc2c(=O)[nH]c(Nc3cc(Cl)cc(Cl)c3)nc2c1 [6d, 2-((3,5-Dichlorophenyl)amino)-7-methoxyquinazolin-4(3H)-one]	complete abolition of antibacterial activity	complete abolition of antibacterial activity	–	–	–	–	–
> 100 µM	> 100 µM	O=c1[nH]c(Nc2ccccc2)nc2cc(Cl)ccc12 [6m, 7-Chloro-2-(phenylamino)quinazolin-4(3H)-one]	complete loss of activity	complete loss of activity	–	–	–	–	–
–	–	O=c1[nH]c(Nc2cccc(F)c2)nc2cc(Cl)ccc12 [6n, 7-Chloro-2-((3-fluorophenyl)amino)quinazolin-4(3H)-one]	–	–	19.7 µM	–	43.8 µM (≈ 12.7 µg/mL)	–	–
> 100 µM	> 100 µM	O=c1[nH]c(Nc2ccc(F)cc2F)nc2cc(Cl)ccc12 [6o, 7-Chloro-2-((2,4-difluorophenyl)amino)quinazolin-4(3H)-one]	complete loss of activity	complete loss of activity	–	–	–	–	–
24.9 µM (≈ 7.51 µg/mL)	35.1 µM (≈ 10.6 µg/mL)	COc1cccc(Nc2nc3cc(Cl)ccc3c(=O)[nH]2)c1 [6p, 7-Chloro-2-((3-methoxyphenyl)amino)quinazolin-4(3H)-one]	Decreased antibacterial activities	Decreased antibacterial activities	–	–	–	–	–
18.1 µM (≈ 5.28 µg/mL)	35.5 µM (≈ 10.4 µg/mL)	O=c1[nH]c(NCC2CCCCC2)nc2cc(Cl)ccc12 [6s, 7-Chloro-2-((cyclohexylmethyl)amino)quinazolin-4(3H)-one]	Decreased antibacterial activities	Decreased antibacterial activities	–	–	–	–	–
> 100 µM	> 100 µM	O=c1[nH]c(Nc2ccccc2Cl)nc2cc(Cl)ccc12 [6t, 7-Chloro-2-((2-chlorophenyl)amino)quinazolin-4(3H)-one]	complete loss of activity	complete loss of activity	–	–	–	–	–
> 100 µM	> 100 µM	O=c1[nH]c(NCc2cc(F)cc(F)c2)nc2cc(Cl)ccc12 [6w, 7-Chloro-2-((3,5-difluorobenzyl)amino)quinazolin-4(3H)-one]	complete loss of activity	complete loss of activity	–	–	–	–	–
12.9 µM (≈ 4.84 µg/mL)	3.9 µM (≈ 1.46 µg/mL)	O=c1[nH]c(Nc2cc(Cl)cc(Cl)c2)nc2c(Cl)ccc(Cl)c12 [compound 1, 5,8-Dichloro-2-((3,5-dichlorophenyl)amino)quinazolin-4(3H)-one]	–	–	–	–	–	–	–
–	–	CC(=O)NC[C@H]1CN(c2ccc(N3CCOCC3)c(F)c2)C(=O)O1 [linezolid, reference compound]	–	–	–	–	–	–	1.2 µM

Compound	MIC50 [1]	MIC50 [2, 5]	antibacterial activity (in words) [1]	antibacterial activity (in words) [2]	IC50 [3]	fold better antibacterial activity against JE2 compared to compound 1 [1]	MIC50 [4]	MIC50 ([2]; methicillin-sensitive strain)	H460 Assay MIC50 (MIC50 ex vivo) ([4]; H460 cells infected with USA300 JE2-GFP, 24 h, GFP fluorescence)
O=c1[nH]c(Nc2cc(Cl)cc(Cl)c2)nc2cc([N+](=O)[O-])ccc12 [6e, 2-((3,5-Dichlorophenyl)amino)-7-nitroquinazolin-4(3H)-one]	–	3 to 6 µM (≈ 1.05 to 2.11 µg/mL)	–	–	9.3 µM	at least 6.5 fold	68.8 µM (≈ 24.2 µg/mL)	3.0 µM (≈ 1.05 µg/mL)	–
O=c1[nH]c(Nc2cc(Cl)cc(Cl)c2)nc2c(Br)cc(Br)cc12 [6f, 6,8-Dibromo-2-((3,5-dichlorophenyl)amino)quinazolin-4(3H)-one]	–	3 to 6 µM (≈ 1.39 to 2.78 µg/mL)	–	–	9.6 µM	at least 6.5 fold	8.7 µM (≈ 4.04 µg/mL)	6.0 µM (≈ 2.78 µg/mL)	–
O=c1[nH]c(Nc2cc(Cl)cc(Cl)c2)nc2cc(F)c(F)cc12 [6g, 2-((3,5-Dichlorophenyl)amino)-6,7-difluoroquinazolin-4(3H)-one]	–	3 to 6 µM (≈ 1.03 to 2.05 µg/mL)	–	–	12.9 µM	at least 6.5 fold	25.3 µM (≈ 8.66 µg/mL)	4.0 µM (≈ 1.37 µg/mL)	–
O=c1[nH]c(Nc2cccc(C(F)(F)F)c2)nc2cc(Cl)ccc12 [6r, 7-Chloro-2-((3-(trifluoromethyl)phenyl)amino)quinazolin-4(3H)-one]	–	2.1 to 4.5 µM (≈ 0.713 to 1.53 µg/mL)	–	–	15.1 µM	–	35.8 µM (≈ 12.2 µg/mL)	3.1 µM (≈ 1.05 µg/mL)	–
